Values joined by “and” are separate entries in the source; they are usually repeats but may differ in a detail not shown here. Equal values may be shown once. Read-outs that look alike come from different tables or passages of the source.
How the values were obtained:
[1] = test system: dopamine transporter (DAT); conditions: potency ratio versus (1S)-(+)-cocaine; cited from earlier work
[2] = target: T1, serotonin transporter (SERT) (Macaca fascicularis, UniProt A7KAX8); test: Serotonin transporter assay: inhibition of 3H-citalopram binding, caudate-putamen membranes; parameters: species or system cynomolgus monkey (Macaca fascicularis)
T1 construct: The serotonin transporter is assayed in caudate-putamen membranes; from tissue; host or cells: cynomolgus monkey caudate-putamen membranes
T1 sequence (A7KAX8 1-630): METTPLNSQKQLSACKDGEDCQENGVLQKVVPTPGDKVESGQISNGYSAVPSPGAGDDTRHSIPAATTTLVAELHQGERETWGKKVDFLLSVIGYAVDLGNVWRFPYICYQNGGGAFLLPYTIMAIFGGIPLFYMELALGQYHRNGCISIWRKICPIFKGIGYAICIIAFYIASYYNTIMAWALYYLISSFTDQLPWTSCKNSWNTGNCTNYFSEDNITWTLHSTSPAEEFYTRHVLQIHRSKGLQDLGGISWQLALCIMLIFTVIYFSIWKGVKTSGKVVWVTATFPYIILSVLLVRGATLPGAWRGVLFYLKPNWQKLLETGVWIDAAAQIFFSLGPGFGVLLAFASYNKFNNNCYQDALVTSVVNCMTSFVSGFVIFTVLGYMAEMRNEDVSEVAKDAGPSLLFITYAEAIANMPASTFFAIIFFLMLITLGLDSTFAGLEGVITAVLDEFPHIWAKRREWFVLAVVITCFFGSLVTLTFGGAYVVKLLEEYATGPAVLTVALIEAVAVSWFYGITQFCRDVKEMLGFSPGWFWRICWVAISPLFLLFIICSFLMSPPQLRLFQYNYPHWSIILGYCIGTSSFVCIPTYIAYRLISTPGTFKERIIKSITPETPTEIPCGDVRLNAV
Description: It is also important to measure the selectivity of the candidate of the dopamine compared with the serotonin transporter. The serotonin transporter is also detectable in the striatum, the brain region with the highest density of dopamine neurons and in brain regions surrounding the striatum. […] Therefore, a measure of probe affinity of the serotonin transport is conducted by assays paralleling the dopamine transporter assays.
Brain tissue from adult male and female cynomolgus monkeys (Macaca fascicularis) is stored at −85° C. in the primate -brain bank at the New England Regional Primate Research Center. […] Membranes are prepared as described previously. Briefly, the caudate-putamen is homogenized in 10 volumes (w/v) of ice-cold Tris.HCl buffer (50 mM, pH 7.4 at 4° C.) and centrifuged at […] for 20 min in the cold. The resulting pellet is suspended in 40 volumes of buffer, and the entire procedure is repeated twice.
The serotonin transporter is assayed in caudate-putamen membranes using conditions similar to those for the dopamine transporter. […] The 2 h incubation (0-4° C.) is initiated by addition of membranes and terminated by rapid filtration over Whatman GF/B glass fiber filters pre-soaked in 0.1% polyethyleneimine. The filters are washed twice with 5 ml Tris.HCl buffer (50 mM) and the remaining steps are carried out as described above. […] Specific binding is the difference between the two values.
Data are analyzed by EBDA and LIGAND computer software (Elsevier-Biosoft, UK) Final estimates of IC50 and nH values are computed by the EBDA program. Baseline values for the individual drugs are established by computer analysis using the baseline drugs as guide. The LIGAND program provides final parameter estimates of the novel compounds by iterative non-linear curve-fitting and evaluation of one- or two-component binding models.

[3] = target: T2, dopamine transporter (DAT) (Macaca fascicularis, UniProt Q9GJT6); test: Dopamine transporter assay: inhibition of 3H-WIN35,428 binding, caudate-putamen membranes; parameters: species or system cynomolgus monkey (Macaca fascicularis); conditions: for Selectivity DAT V. SERT: ratio of SERT IC50 to DAT IC50
T2 construct: The caudate-putamen will be dissected from coronal slices; from tissue; host or cells: cynomolgus monkey caudate-putamen membranes
T2 sequence (Q9GJT6 whole entry): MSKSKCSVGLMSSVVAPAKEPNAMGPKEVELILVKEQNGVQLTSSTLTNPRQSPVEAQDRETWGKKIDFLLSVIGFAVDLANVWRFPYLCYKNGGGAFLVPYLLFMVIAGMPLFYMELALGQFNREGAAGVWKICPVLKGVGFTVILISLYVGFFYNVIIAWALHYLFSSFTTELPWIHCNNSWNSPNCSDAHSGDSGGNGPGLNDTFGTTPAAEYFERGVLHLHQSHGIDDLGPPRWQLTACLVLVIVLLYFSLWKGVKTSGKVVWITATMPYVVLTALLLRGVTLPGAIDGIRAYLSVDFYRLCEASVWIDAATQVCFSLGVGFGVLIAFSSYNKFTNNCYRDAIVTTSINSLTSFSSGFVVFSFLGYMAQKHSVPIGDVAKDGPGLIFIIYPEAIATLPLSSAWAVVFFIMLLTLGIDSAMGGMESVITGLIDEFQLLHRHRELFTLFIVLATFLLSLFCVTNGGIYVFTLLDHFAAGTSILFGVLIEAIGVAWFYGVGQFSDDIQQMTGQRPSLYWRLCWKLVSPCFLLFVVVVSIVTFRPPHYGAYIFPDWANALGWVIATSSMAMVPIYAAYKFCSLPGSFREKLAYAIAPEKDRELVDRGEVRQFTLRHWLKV

[4] = Table 1, inhibition of 3H-citalopram binding, cynomolgus monkey caudate-putamen, read-out: IC50 (nM SERT)
[5] = Table 1, inhibition of 3H-WIN35,428 binding, cynomolgus monkey caudate-putamen, read-out: IC50 (nM DAT)

Row | Compound | IC50 [2, 4] [nM] | IC50 [3, 5] [nM] | Selectivity DAT V. SERT ([3]; Table 1) | also measured
1 | COC(=O)[C@H]1[C@@H](OC(=O)c2ccccc2)C[C@@H]2CC[C@H]1N2C [(1R)-(−)-cocaine] |  |  |  | binds at the dopamine transporter more potently than the unnatural isomer (1S)-(+)-cocaine [1]: about 200 fold
2 | COC(=O)C1C(c2ccc(Cl)c(Cl)c2)CC2CC(OC)C1N2 (stereo not drawn) [Compound 14, 2β-carbomethoxy-3β-(3,4-dichlorophenyl)-7-methoxy-8-azabicyclo(3.2.1)octane] | 884 | 86 | 10 | 
3 | COC(=O)C1C(c2ccc(Cl)c(Cl)c2)CC2CC(OC)C1N2 (stereo not drawn) [Compound 15, 2β-Carbomethoxy-3-(3,4-dichlorophenyl)-7-methoxy-8-azabicyclo(3.2.1)octane] | 5220 | 92 | 57 | 
4 | COC(=O)C1=C(c2ccc(Cl)c(Cl)c2)CC2CCC1N2C (stereo not shown) [Compound 48] |  |  |  | IC50 [2]: 867 nM; IC50 [3]: 1.1 nM; Selectivity DAT V. SERT ([3]; Table 2, 2,3-enes): 790
5 | COC(=O)C1=C(c2ccc(Cl)c(Cl)c2)CC2CC[C@H]1O2 [Compound 47e, (1R)-2-Carbomethoxy-3-(3,4-dichlorophenyl)-8-oxabicyclo(3.2.1)-2-octene] |  |  |  | IC50 ([2]; read-out: IC50 (nM) SERT): 2120 nM; IC50 ([3]; read-out: IC50 (nM) DAT): 4.6 nM
6 | COC(=O)C1C(c2ccc(Cl)c(Cl)c2)CC2CC(O)C1N2 (stereo not drawn) [Compound 10, 2β-Carbomethoxy-3-(3,4-dichlorophenyl)-7-hydroxy-8-azabicyclo(3.2.1)octane] | 1450 | 1 |  | 
7 | COC(=O)C1C(c2ccc(Cl)c(Cl)c2)CC2CC(O)C1N2C (stereo not shown) [Compound 11] | 20 | 1 | 20 | 
8 | COC(=O)[C@H]1[C@@H](c2ccc(Cl)c(Cl)c2)C[C@@H]2CC[C@H]1N2C [(1R)-3β-(3,4-di-chlorophenyl)-tropane-2β-carboxylic acid methyl ester, reference compound] |  |  | 2 | IC50 [3]: 1.09 nM
9 | COC(=O)C1=C(c2ccc(Cl)c(Cl)c2)CC2CC[C@@H]1O2 [Compound 47f, (1S)-2-Carbomethoxy-3-(3,4-dichlorophenyl)-8-oxabicyclo(3.2.1)-2-octene] |  |  |  | IC50 ([2]; read-out: IC50 (nM) SERT): 46700 nM; Selectivity DAT V. SERT ([3]; Table 2, 2,3-enes): 800 and 802; IC50 ([3]; read-out: IC50 (nM) DAT): 58.2 nM
